# Source: US20240207245A1, “METHOD FOR INHIBITING METASTASIS OF TRIPLE-NEGATIVE BREAST CANCER USING ROSOXACIN” (National Yang Ming Chiao Tung University, priority 2022, published 2024)
# Columns and labels:
# Type in all cases: cell-based, human
# [1] = test system: highly metastatic breast cancer cell line (HMB cells); experiment: Transwell Matrigel cell invasion assay, LPS-induced, HMB cells; conditions: LPS 1 μM + quinolone antibiotic 1 μM, 24 hours, compared with control group H2 (LPS only), FIG. 1
# Protocol: (§1) In addition, the highly metastatic breast cancer cell line (abbreviated as HMB cells) used in the following experiments was obtained according to the following preparation processes: the MDA-MB-231 cells (2.5×10^6 cells) were injected into the mammary fat pad of a severe combined immune deficient (SCID) mice (purchased from BioLasco Taiwan Co., Ltd; 4 weeks old, with a body weight of approximately 20 g), and the triple-negative breast cancer cells metastasized to the lung of the SCID mice were harvested after 12 weeks. Next, the triple-negative breast cancer cells (2.5×10^6 cells) thus obtained were injected into the mammary fat pad of another SCID mice, and the HMB cells metastasized to the lung of the another SCID mice were harvested after 8 weeks.
# The HMB cells prepared in section 1 of “General Experimental Materials” were divided into 8 groups, namely, two control groups (i.e., control groups H1 and H2), one experimental group (i.e., experimental group H), and five comparative groups (i.e., comparative groups H1 to H5). In addition, the MDA-MB-231 cells prepared in section 1 of “General Experimental Materials” were divided into three groups, namely, two control groups (i.e., control groups M1 and M2) and one experimental group (i.e., experimental group M).
# Each group of the cells was seeded at a concentration of 1×10^5 cells per well into respective permeable Transwell® insert (Corning Inc.) for a 24-well plate.
# Thereafter, the Transwell® inserts were placed into the 24-well plate that contained 0.6 mL of DMEM supplemented with 10% FBS in each well, followed by cultivation in a humidified incubator (37° C., 5% CO2, 95% relative humidity) for 24 hours.
# Subsequently, the culture medium in each Transwell® insert was removed, and the respective Transwell® insert was washed with phosphate-buffered saline (PBS). The cells migrating through the polycarbonate membrane and attaching to the bottom side of the polycarbonate membrane were subjected to a fixation treatment with a 4% formaldehyde solution (in PBS) at room temperature for 15 minutes. Then, the non-migrating cells were removed using a cotton swab, followed by conducting staining using a 1% crystal violet solution according to techniques well-known to those skilled in the art. The number of the stained cells was counted under a Leica DMI3000 B inverted microscope (Leica Microsystems, Wetzlar, Germany) at 100× magnification, followed by analysis using Image-Pro Software (version 6.0).
# The cell invasion percentage (%) of each group was calculated by substituting the thus obtained number of stained cells into the following Equation (I):
# [formula] • where A=cell invasion percentage (%) • B=number of stained cells in respective group • C=number of stained cells in the control group H1 or the control group M1
# (§2) The data thus obtained were analyzed according to the method described in section 1 of “General Procedures”.
# MDA-MB-231 cells = experiment: Transwell Matrigel cell invasion assay, LPS-induced, MDA-MB-231 cells; conditions: LPS 1 μM + rosoxacin 1 μM, 24 hours, compared with control group M2 (LPS only), FIG. 2
# Description: Human breast cancer cell line MDA-MB-231 (ATCC HTB-26) was purchased from American Type Culture Collection (ATCC, Manassas, Va., USA).
# The HMB cells prepared in section 1 of “General Experimental Materials” were divided into 8 groups, namely, two control groups (i.e., control groups H1 and H2), one experimental group (i.e., experimental group H), and five comparative groups (i.e., comparative groups H1 to H5). In addition, the MDA-MB-231 cells prepared in section 1 of “General Experimental Materials” were divided into three groups, namely, two control groups (i.e., control groups M1 and M2) and one experimental group (i.e., experimental group M). […]
# Subsequently, the culture medium in each Transwell® insert was removed, and the respective Transwell® insert was washed with phosphate-buffered saline (PBS). […] The number of the stained cells was counted under a Leica DMI3000 B inverted microscope (Leica Microsystems, Wetzlar, Germany) at 100× magnification, followed by analysis using Image-Pro Software (version 6.0).
# The cell invasion percentage (%) of each group was calculated by substituting the thus obtained number of stained cells into the following Equation (I): […]
# as §2
# [2] = test system: highly metastatic breast cancer cell line (HMB cells); experiment: Tumor-sphere formation assay, LPS-induced, HMB cells; conditions: LPS 1 μM + rosoxacin 1 μM, 21 days, compared with control group H2 (LPS only), FIG. 3
# Protocol: as §1
# The sphere formation medium used in this example was prepared by supplementing Gibco DMEM/F-12 medium with the ingredients shown in Table 3.
# The HMB cells prepared in section 1 of “General Experimental Materials” were divided into three groups, namely, two control groups (i.e., control groups H1 and H2) and one experimental group (i.e., experimental group H). […]
# The number of tumor spheres was counted under a Leica DMI3000 B inverted microscope (Leica Microsystems, Wetzlar, Germany) at 100× magnification.
# as §2
Compound,cell invasion percentage [1],cell invasion percentage (MDA-MB-231 cells),number of tumor spheres [2]
NC1CCN(c2c(F)cc3c(=O)c(C(=O)O)cn(C4CC4)c3c2Cl)C1 (stereo not shown) [Clinafloxacin],significantly higher than that determined in the control group H2,–,–
C[C@H]1NCc2cc(-c3ccc4c(=O)c(C(=O)O)cn(C5CC5)c4c3OC(F)F)ccc21 [Garenoxacin],substantially similar to that determined in the control group H2,–,–
COc1c(N2CCNC(C)C2)c(F)cc2c(=O)c(C(=O)O)cn(C3CC3)c12 (stereo not shown) [Gatifloxacin],substantially similar to that determined in the control group H2,–,–
CCn1cc(C(=O)O)c(=O)c2cc(F)c(N3CCNCC3)cc21 [Norfloxacin],substantially similar to that determined in the control group H2,–,–
"CCn1cc(C(=O)O)c(=O)c2ccc(-c3ccncc3)cc21 [rosoxacin, 1-ethyl-4-oxo-7-(4-pyridyl)-1,4-dihydroquinoline-3-carboxylic acid]",significantly lower than that determined in the control group H2,significantly lower than that determined in the control group M2,significantly lower than that determined in the control group H2
